Test [1] deals with Mitogen-activated protein kinase 14 (Homo sapiens) (UniProt Q16539). In words: Inhibition of recombinant full length human GST-tagged MAPK14 expressed in Escherichia coli assessed as enzyme residual activity at 0.4 uM using fluorophore-labeled serine/threonine-04 peptide as substrate incubated for 60 mins by Z'-LYTE assay relative to control.
Test [2] addresses Ephrin type-A receptor 2 (Homo sapiens) (UniProt P29317). In words: Inhibition of recombinant human GST-tagged EPHA2 cytoplasmic domain (560 to 976 residues) expressed in baculovirus expression system assessed as enzyme residual activity at 0.4 uM using tyrosine-01 peptide as substrate incubated for 60 mins by Z'-Lyte assay relative to control.
Test [3] relates to Jurkat. In words: Induction of apoptosis in human Jurkat cells assessed as downregulation of PARP at 1 to 20 uM incubated for 24 hrs by Western blot analysis. In kind it is functional, cell-based. A general note: A western blot detects proteins with antibodies after separation by electrophoresis.
Test [4] addresses Aurora kinase B (Homo sapiens) (UniProt Q96GD4). The experiment in a line: Inhibition of recombinant full length human His-tagged Aurora B expressed in baculovirus expression system assessed as enzyme residual activity at 0.4 uM using fluorophore-labeled serine/threonine-1 peptide as substrate incubated for 60 mins by Z'-LYTE assay relative to control.
The target in test [5] is Serine/threonine-protein kinase Nek1 (Homo sapiens) (UniProt Q96PY6). In words: Inhibition of recombinant human GST-tagged NEK1 catalytic domain (1 to 505 amino acids) expressed in baculovirus expression system assessed as enzyme residual activity at 0.4 uM using fluorophore-labeled serine/threonine-07 peptide as substrate incubated for 60 mins by Z'-LYTE assay relative to control.

Test [6] has as its target Tyrosine-protein kinase Lck (Homo sapiens, UniProt P06239). In words: Inhibition of recombinant full length human C-terminal His-tagged LCK cytoplasmic domain expressed in baculovirus expression system assessed as enzyme residual activity at 0.4 uM using fluorophore-labeled tyrosine-2 peptide as substrate incubated for 60 mins by Z'-LYTE assay relative to control.
Test [7] concerns CCRF-CEM. In words: Induction of apoptosis in human CCRF-CEM cells assessed as downregulation of caspase3 at 1 to 5 uM incubated for 24 hrs by Western blot analysis. In kind it is functional, cell-based.
In test [8] the target is T1, Tyrosine-protein kinase ITK/TSK (Homo sapiens) (UniProt Q08881).
T1 sequence (whole entry): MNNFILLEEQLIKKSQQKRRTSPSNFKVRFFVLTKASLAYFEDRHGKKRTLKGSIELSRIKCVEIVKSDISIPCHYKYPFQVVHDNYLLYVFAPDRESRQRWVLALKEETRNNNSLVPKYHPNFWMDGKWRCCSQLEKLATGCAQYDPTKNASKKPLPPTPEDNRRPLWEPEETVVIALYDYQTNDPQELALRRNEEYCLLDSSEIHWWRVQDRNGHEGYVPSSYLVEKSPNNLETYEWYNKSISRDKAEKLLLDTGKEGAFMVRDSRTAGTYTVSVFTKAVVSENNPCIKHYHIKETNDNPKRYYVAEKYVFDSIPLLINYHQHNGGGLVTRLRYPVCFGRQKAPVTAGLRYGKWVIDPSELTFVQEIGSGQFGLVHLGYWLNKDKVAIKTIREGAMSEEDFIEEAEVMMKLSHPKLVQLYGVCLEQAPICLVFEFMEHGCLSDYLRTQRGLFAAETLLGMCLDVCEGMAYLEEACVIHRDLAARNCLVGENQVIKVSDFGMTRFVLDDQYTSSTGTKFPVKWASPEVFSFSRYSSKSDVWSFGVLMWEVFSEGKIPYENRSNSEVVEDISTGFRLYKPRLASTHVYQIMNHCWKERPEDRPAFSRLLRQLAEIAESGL
The experiment in a line: Inhibition of recombinant human N-terminal His6-tagged ITK (352 to 617 residues) expressed in baculovirus infected Sf21 insect cells assessed as inactivation rate constant using STK substrate by HTRF assay.

The target in test [9] is Mitogen-activated protein kinase 8 (Homo sapiens) (UniProt P45983). The experiment in a line: Inhibition of tracer 236 binding to recombinant full length human His-tagged MAPK8 expressed in baculovirus expression system assessed as enzyme residual activity at 0.4 uM incubated for 60 mins by Lanthascreen assay relative to control.
Test [10] concerns the target Tyrosine-protein kinase Blk (Homo sapiens, UniProt P51451). The experiment in a line: Inhibition of recombinant full-length human His-tagged BLK cytoplasmic domain expressed in baculovirus expression system using fluorophore-labeled tyrosine-1 peptide as substrate incubated for 60 mins by Z'-LYTE assay.
The target in test [11] is T1, Tyrosine-protein kinase ITK/TSK (Homo sapiens). The experiment in a line: Inhibition of recombinant human N-terminal His6-tagged ITK (352 to 617 residues) expressed in baculovirus infected Sf21 insect cells assessed as ratio of Kinact to Ki using STK substrate by HTRF assay. (In TR-FRET formats the signal depends on donor and acceptor labels being close together.)

Test [12] has as its target T2, Tyrosine-protein kinase ITK/TSK (Homo sapiens, UniProt Q08881).
T2 sequence (Q08881 whole entry): T1 sequence (whole entry)
The experiment in a line: Inhibition of recombinant human N-terminal His6-tagged ITK (352 to 617 residues) expressed in baculovirus infected Sf21 insect cells using STK substrate by HTRF assay.

Test [13] concerns the target TAK1/TAB1 (Homo sapiens, UniProt O43318). The experiment in a line: Inhibition of tracer 222 binding to recombinant full-length human His-tagged MAP3K7/MAP3K7IP1 (437 to 504 residues) expressed in baculovirus expression system by Lanthascreen assay.
Test [14] concerns the target T3, Tyrosine-protein kinase BTK (Homo sapiens, UniProt Q06187). In words: Inhibition of recombinant human full-length N-terminal His6-tagged BTK expressed in baculovirus infected Sf21 insect cells using STK substrate by HTRF assay.
Test [15] addresses T1, Tyrosine-protein kinase ITK/TSK (Homo sapiens). The experiment in a line: Inhibition of recombinant full-length human GST-tagged ITK cytoplasmic domain expressed in baculovirus expression system assessed as enzyme residual activity at 0.4 uM using fluorophore-labeled tyrosine-1 peptide as substrate incubated for 60 mins by Z'-LYTE assay relative to control.
For test [16], the system named is H9. The experiment in a line: Growth inhibition of human H9 cells incubated for 72 hrs by CellTiter-Glo luminescent cell viability assay. Conditions: H9, 72 h. The class given is functional.
Test [17] has as its target Hepatocyte growth factor receptor (Homo sapiens) (UniProt P08581). In words: Inhibition of recombinant human N-terminal His-tagged cMET cytoplasmic domain (956 to 1390 residues) expressed in baculovirus expression system assessed as enzyme residual activity at 0.4 uM using fluorophore-labeled tyrosine 6 peptide as substrate incubated for 60 mins by Z'-LYTE assay relative to control.

Test [18] has as its target T3, Tyrosine-protein kinase BTK. The experiment in a line: Inhibition of recombinant full length human His-tagged BTK cytoplasmic domain expressed in baculovirus expression system assessed as enzyme residual activity at 0.4 uM using fluorophore-labeled tyrosine-1 peptide as substrate incubated for 60 mins by Z'-LYTE assay relative to control.
In test [19] the target is Receptor-type tyrosine-protein kinase FLT3 (Homo sapiens) (UniProt P36888). In words: Inhibition of recombinant human His-tagged FLT3 cytoplasmic domain (564 to 958 residues) expressed in baculovirus expression system assessed as enzyme residual activity at 0.4 uM using fluorophore-labeled tyrosine-2 peptide as substrate incubated for 60 mins by Z'-LYTE assay relative to control.

Test [20] addresses T3, Tyrosine-protein kinase BTK. The experiment in a line: Inhibition of BTK in human Ramos cells assessed as reduction in […] PLCgamma2 phosphorylation at 10 to 3000 nM preincubated for 2 hrs followed by […] addition and measured after 30 min by Western blot analysis. The class given is cell-based.

Activity calls are given as the source filed them. The calls are words filed in the database; no cut-off is given here.

1 compound from ChEMBL document CHEMBL4346710, “Discovery of 7H-pyrrolo[2,3-d]pyrimidine derivatives as selective covalent irreversible inhibitors of interleukin-2-inducible T-cell kinase (Itk)” (Eur J Med Chem, 2019) can be followed below.

T3 sequence (Q06187 whole entry, the tested form may be a part): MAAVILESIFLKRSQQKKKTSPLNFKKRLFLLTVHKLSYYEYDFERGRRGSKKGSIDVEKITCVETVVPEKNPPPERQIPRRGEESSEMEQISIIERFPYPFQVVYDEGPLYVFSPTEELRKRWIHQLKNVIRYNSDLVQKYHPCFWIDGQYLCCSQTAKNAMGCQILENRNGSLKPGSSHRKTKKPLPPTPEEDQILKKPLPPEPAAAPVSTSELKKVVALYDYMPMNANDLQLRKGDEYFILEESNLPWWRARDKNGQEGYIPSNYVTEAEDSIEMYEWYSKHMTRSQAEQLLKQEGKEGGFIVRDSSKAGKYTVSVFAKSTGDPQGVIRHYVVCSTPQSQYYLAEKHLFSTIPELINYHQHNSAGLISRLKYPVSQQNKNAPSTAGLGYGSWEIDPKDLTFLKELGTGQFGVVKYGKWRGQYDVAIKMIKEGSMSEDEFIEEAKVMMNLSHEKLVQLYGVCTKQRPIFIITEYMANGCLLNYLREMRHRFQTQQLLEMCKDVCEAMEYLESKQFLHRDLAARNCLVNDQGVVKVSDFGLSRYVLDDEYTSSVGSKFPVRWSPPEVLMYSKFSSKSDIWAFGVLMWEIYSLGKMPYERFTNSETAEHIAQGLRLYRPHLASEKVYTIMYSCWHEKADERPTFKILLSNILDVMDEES
Sequence of Ephrin type-A receptor 2 (Homo sapiens) (P29317 whole entry, the tested form may be a part): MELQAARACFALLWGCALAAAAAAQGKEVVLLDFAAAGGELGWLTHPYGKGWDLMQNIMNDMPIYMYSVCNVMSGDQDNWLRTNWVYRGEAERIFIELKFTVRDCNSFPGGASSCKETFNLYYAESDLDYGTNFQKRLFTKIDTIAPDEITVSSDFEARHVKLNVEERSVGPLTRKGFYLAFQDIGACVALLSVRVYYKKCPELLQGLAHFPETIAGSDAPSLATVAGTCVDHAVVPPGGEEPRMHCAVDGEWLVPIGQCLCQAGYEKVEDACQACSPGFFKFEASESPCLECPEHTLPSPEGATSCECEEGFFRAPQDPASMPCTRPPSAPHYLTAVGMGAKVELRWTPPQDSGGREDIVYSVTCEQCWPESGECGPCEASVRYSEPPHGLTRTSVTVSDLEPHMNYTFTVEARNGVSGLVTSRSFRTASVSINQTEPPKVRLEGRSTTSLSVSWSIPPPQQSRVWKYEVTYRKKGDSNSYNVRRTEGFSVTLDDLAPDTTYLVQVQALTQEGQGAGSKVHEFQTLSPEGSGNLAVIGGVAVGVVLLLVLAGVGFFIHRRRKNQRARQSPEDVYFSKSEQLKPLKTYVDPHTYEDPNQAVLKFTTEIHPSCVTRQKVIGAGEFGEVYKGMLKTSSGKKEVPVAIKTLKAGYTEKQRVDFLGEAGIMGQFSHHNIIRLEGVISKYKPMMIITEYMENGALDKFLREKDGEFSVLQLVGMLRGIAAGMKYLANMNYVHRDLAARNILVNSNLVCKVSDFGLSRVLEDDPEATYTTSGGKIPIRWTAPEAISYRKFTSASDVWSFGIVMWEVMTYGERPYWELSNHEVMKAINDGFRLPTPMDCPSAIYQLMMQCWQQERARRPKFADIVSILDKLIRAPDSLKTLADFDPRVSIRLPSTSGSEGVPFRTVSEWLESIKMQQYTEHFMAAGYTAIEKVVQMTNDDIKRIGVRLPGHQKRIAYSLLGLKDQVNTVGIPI
Sequence of Tyrosine-protein kinase Lck (P06239 2-509 limits assumed): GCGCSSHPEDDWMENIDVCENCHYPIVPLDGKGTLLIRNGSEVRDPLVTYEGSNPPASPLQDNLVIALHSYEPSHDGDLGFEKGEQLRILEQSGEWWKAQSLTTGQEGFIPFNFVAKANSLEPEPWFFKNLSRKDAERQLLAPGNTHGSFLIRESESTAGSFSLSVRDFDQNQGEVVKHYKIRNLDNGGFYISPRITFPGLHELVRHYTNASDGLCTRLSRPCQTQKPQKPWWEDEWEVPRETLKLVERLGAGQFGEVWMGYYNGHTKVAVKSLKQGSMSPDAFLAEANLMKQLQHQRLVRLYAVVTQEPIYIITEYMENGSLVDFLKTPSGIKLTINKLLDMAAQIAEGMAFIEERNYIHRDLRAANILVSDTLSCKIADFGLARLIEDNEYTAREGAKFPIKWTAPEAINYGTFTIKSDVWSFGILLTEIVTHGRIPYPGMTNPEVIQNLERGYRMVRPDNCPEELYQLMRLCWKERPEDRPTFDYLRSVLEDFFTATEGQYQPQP
Sequence of Hepatocyte growth factor receptor (Homo sapiens) (P08581 whole entry, the tested form may be a part): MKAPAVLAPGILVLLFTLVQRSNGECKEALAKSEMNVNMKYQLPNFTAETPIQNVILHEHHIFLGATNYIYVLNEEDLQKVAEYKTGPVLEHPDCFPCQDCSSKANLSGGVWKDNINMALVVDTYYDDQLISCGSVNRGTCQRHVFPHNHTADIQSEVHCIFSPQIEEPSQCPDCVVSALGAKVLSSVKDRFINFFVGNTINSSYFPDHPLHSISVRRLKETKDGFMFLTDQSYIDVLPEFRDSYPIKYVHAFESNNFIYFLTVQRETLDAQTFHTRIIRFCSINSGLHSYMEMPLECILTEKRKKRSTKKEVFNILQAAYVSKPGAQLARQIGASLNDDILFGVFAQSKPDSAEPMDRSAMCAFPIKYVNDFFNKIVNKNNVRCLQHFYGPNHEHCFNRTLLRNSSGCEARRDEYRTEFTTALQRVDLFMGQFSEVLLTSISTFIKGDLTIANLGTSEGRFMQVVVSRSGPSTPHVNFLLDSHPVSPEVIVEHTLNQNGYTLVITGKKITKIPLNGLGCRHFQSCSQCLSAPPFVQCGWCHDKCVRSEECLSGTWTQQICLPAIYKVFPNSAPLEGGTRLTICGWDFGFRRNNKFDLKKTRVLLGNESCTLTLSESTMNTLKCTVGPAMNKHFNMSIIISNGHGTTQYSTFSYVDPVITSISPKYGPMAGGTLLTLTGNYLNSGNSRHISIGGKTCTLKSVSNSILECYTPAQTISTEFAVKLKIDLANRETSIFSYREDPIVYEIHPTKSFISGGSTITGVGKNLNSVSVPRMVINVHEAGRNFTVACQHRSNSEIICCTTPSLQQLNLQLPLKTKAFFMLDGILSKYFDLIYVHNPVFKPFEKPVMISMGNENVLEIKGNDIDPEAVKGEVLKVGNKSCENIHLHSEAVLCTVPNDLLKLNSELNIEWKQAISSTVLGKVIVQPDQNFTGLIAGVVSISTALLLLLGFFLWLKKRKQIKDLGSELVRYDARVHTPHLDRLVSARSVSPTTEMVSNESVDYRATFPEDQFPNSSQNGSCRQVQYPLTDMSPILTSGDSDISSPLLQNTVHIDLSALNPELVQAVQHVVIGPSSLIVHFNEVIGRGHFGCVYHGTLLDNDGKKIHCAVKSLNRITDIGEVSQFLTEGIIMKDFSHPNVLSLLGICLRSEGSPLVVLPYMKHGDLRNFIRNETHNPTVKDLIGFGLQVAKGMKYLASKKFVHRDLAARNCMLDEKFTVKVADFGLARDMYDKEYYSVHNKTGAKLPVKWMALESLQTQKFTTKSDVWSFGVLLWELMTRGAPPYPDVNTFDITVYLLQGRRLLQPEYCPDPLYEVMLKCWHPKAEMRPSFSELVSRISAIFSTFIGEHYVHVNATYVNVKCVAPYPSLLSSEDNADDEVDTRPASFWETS
Sequence of Mitogen-activated protein kinase 14 (Homo sapiens) (Q16539 whole entry, the tested form may be a part): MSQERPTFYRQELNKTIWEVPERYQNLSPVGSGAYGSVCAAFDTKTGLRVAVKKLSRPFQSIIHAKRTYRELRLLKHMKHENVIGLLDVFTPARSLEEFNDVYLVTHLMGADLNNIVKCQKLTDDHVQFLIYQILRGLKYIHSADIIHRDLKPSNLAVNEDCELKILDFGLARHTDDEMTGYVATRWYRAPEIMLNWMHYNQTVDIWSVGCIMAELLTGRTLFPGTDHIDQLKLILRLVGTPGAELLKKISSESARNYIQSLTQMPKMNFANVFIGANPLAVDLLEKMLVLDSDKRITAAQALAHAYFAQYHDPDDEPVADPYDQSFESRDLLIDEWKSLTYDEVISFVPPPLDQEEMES
Sequence of TAK1/TAB1 (Q15750 whole entry, the tested form may be a part): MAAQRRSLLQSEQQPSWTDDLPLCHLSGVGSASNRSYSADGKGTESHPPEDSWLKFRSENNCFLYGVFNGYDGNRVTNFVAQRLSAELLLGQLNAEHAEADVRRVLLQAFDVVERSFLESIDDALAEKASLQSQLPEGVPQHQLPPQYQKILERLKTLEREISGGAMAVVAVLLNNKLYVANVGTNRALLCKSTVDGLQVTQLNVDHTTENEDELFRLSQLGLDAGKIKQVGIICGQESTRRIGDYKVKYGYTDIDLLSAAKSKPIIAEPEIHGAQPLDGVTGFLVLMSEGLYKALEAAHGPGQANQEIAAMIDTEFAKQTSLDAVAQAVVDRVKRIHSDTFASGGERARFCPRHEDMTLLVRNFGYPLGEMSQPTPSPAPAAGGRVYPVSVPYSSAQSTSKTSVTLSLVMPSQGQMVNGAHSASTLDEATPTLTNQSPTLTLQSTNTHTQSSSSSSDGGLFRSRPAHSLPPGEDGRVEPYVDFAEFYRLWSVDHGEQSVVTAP
Sequence of TAK1/TAB1 (O43318 whole entry, the tested form may be a part): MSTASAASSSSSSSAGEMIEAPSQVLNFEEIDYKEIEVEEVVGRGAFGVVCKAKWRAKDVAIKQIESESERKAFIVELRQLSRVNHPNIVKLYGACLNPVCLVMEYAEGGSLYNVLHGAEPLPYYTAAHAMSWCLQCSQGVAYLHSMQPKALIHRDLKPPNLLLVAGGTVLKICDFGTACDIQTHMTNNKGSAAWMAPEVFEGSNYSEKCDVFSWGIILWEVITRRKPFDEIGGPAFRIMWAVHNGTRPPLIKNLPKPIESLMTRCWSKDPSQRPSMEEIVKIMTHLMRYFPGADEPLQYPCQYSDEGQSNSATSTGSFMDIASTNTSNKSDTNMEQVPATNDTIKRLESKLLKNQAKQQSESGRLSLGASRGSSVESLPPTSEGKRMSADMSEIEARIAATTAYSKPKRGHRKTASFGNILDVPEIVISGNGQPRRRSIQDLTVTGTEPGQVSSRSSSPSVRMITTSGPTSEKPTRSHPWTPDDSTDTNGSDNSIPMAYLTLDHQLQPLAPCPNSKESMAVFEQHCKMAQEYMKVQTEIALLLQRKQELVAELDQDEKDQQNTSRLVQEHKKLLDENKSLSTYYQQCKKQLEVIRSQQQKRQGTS

Take `C=CC(=O)N1CCC(Oc2nc(Nc3ccc(N4CCOCC4)cc3)nc3[nH]cc(-c4cncc(NC)n4)c23)CC1`: the Activity in test [1] turned out to be 95%; in test [2], 95%; in test [4] it was 36%; in [5] it was 89%; in test [6], 9%; in test [9] it was 25%. Besides, the Activity turned out to be 1% in test [15], 79% in test [17], 41.3% in test [18] and 2.3% in [19]. For the same compound, the outcome in [3] and in test [7] was Active. The K in test [8] was determined as 0.038 min⁻¹. The IC50 – broadly, the concentration that gives 50% inhibition – is 198 nM in test [10], 3.7 nM in test [12], 54 nM in [13] and 996 nM in [14]. In addition, in test [11], the Ratio was 101 ×10³ /M.s. Further, the Ki – broadly, the dissociation constant of the complex between target and ligand, obtained from inhibition or displacement – in test [12] came out at 6.3 nM. Moreover, in [16], growth was halved (GI50) at 232 nM. Also, the inhibition entry in test [20] was “inactive”.
